Values quoted from earlier work in US8252791B2, “Purine compounds as cannabinoid receptor blockers” (Jenrin Discovery, Inc., priority 2008, dated 2012).

Conditions: patients with type 2 diabetes not treated with other anti-diabetic medications; after six months of treatment; baseline value 7.9; placebo group 0.3%

For `Cc1c(C(=O)NN2CCCCC2)nn(-c2ccc(Cl)cc2Cl)c1-c1ccc(Cl)cc1` [rimonabant], the HbA1c levels lowered is listed as 0.8%.
